Assay results reported in patent EP0034120A1, “Derivatives of phenoxy-phenoxy-carboxylic acids” (CIBA-GEIGY AG, priority 1980, dated 1981).

Key:
Type in all cases: in vivo
[1] = test system: Reis; test: Herbicidal action, pre-emergent application (greenhouse); parameters: key: 1 Pflanze abgestorben; 2-4 schwere Schädigung; 3: 2-4 schwere Schädigung; 2-4 schwere Schädigung; 5, 6 mittlere Schäden; 5, 6 mittlere Schäden; 7, 8 leichte Schäden; 7, 8 leichte Schäden; 9 Pflanze gedeiht normal, wie unbehandelte Kontrollpflanze; details: after 3 weeks
Description: (§1) wurde durchfolgende Versuche ermittelt: Herbizide Wirkung bei Applikation der Wirkstoffe vor dem Auflaufen der Pflanzen (pre-emergent) Im Gewächshaus werden Pflanzensamen in Blumentöpfe von ca. 11 cm Durchmesser gesät. […] Die Töpfe werden dann im Gewächshaus unter optimalen Bedingungen für das Pflanzenwachstum, regelmässiges Bewässern, einer Temperatur von 22-25°C und 50-70% relativer Luftfeuchtigkeit gehalten. Der Versuch wird nach 3 Wochen abgebrochen und der Zustand der Pflanzen gemäss dem folgenden EWRC (European Weed Research Councel) Bewertungsschema registriert: • 1 Pflanze abgestorben • 2-4 schwere Schädigung • 5, 6 mittlere Schäden • 7, 8 leichte Schäden • 9 Pflanze gedeiht normal, wie unbehandelte Kontrollpflanze.

[2] = test system: Weizen; test: as above; parameters: key: 1 Pflanze abgestorben; 2-4 schwere Schädigung; 3: 2-4 schwere Schädigung; 2-4 schwere Schädigung; 5, 6 mittlere Schäden; 5, 6 mittlere Schäden; 7, 8 leichte Schäden; 7, 8 leichte Schäden; 9 Pflanze gedeiht normal, wie unbehandelte Kontrollpflanze; details: after 3 weeks
Description: as §1

[3] = test system: abutilon sp; test: as above; parameters: key: 1 Pflanze abgestorben; 2-4 schwere Schädigung; 3: 2-4 schwere Schädigung; 2-4 schwere Schädigung; 5, 6 mittlere Schäden; 5, 6 mittlere Schäden; 7, 8 leichte Schäden; 7, 8 leichte Schäden; 9 Pflanze gedeiht normal, wie unbehandelte Kontrollpflanze; details: after 3 weeks
Description: as §1

[4] = test system: amarantus retrofl.; test: as above; parameters: key: 1 Pflanze abgestorben; 2-4 schwere Schädigung; 3: 2-4 schwere Schädigung; 2-4 schwere Schädigung; 5, 6 mittlere Schäden; 5, 6 mittlere Schäden; 7, 8 leichte Schäden; 7, 8 leichte Schäden; 9 Pflanze gedeiht normal, wie unbehandelte Kontrollpflanze; details: after 3 weeks
Description: as §1

[5] = test system: beta vulgaris; test: as above; parameters: key: 1 Pflanze abgestorben; 2-4 schwere Schädigung; 3: 2-4 schwere Schädigung; 2-4 schwere Schädigung; 5, 6 mittlere Schäden; 5, 6 mittlere Schäden; 7, 8 leichte Schäden; 7, 8 leichte Schäden; 9 Pflanze gedeiht normal, wie unbehandelte Kontrollpflanze; details: after 3 weeks
Description: as §1

[6] = test system: chenopodium sp.; test: as above; parameters: key: 1 Pflanze abgestorben; 2-4 schwere Schädigung; 3: 2-4 schwere Schädigung; 2-4 schwere Schädigung; 5, 6 mittlere Schäden; 5, 6 mittlere Schäden; 7, 8 leichte Schäden; 7, 8 leichte Schäden; 9 Pflanze gedeiht normal, wie unbehandelte Kontrollpflanze; details: after 3 weeks
Description: as §1

[7] = test system: chrysanthemum l.; test: as above; parameters: key: 1 Pflanze abgestorben; 2-4 schwere Schädigung; 3: 2-4 schwere Schädigung; 2-4 schwere Schädigung; 5, 6 mittlere Schäden; 5, 6 mittlere Schäden; 7, 8 leichte Schäden; 7, 8 leichte Schäden; 9 Pflanze gedeiht normal, wie unbehandelte Kontrollpflanze; details: after 3 weeks
Description: as §1

[8] = test system: sinapis alba; test: as above; parameters: key: 1 Pflanze abgestorben; 2-4 schwere Schädigung; 3: 2-4 schwere Schädigung; 2-4 schwere Schädigung; 5, 6 mittlere Schäden; 5, 6 mittlere Schäden; 7, 8 leichte Schäden; 7, 8 leichte Schäden; 9 Pflanze gedeiht normal, wie unbehandelte Kontrollpflanze; details: after 3 weeks
Description: as §1

[9] = test system: viola tricolor; test: as above; parameters: key: 1 Pflanze abgestorben; 2-4 schwere Schädigung; 3: 2-4 schwere Schädigung; 2-4 schwere Schädigung; 5, 6 mittlere Schäden; 5, 6 mittlere Schäden; 7, 8 leichte Schäden; 7, 8 leichte Schäden; 9 Pflanze gedeiht normal, wie unbehandelte Kontrollpflanze; details: after 3 weeks
Description: as §1

[10] = test system: Ammania indica; test: Selective herbicidal action in rice, post-emergence (flooded trays); parameters: key: 1 Pflanze abgestorben; 2-4 schwere Schädigung; 3: 2-4 schwere Schädigung; 2-4 schwere Schädigung; 5, 6 mittlere Schäden; 5, 6 mittlere Schäden; 7, 8 leichte Schäden; 7, 8 leichte Schäden; 9 Pflanze gedeiht normal, wie unbehandelte Kontrollpflanze; details: applied into paddy water, evaluated after 4 weeks
Description: (§2) Reispflänzchen, welche 25 Tage alt sind, wurden im Gewächshaus in grosse rechtackige Eternitschalen vergflanzt. Zwischen die Reiben der Reispfianzon wurden dann Samen der in Reiskulturen vorkommanden Unkräuter Echinochloa crus galli, Cyperus difformis, ? und Rotala gesät. Die Schalen wurden gut bewässert und bei einer Temperatur von ca. 25°C und hoher Luftfeuchtigkeit gehalten. Nach 12 Tagen, wenn die Unkräuter aufgelaufen sind und das 2-3 Blattstadium erreicht haben, wurde die Erde in der Schale mit einer 2,5 cm hohen Schicht Wasser bedeckt. Die Verbindung No. 2 wurde denn als Emulsionskonzentrat mittels einer-Pipette zwischen die Pflanzenreihen appliziert, wobei man das Emulsionskonzentrat so verdünnte und auftrug, dass es einer Applikationsmenge im Feld von 2 und 1 kg Wirkstoff pro Hektar entsprach. Der Versuch wurde nach 4 Wochen ausgewertat.

[11] = test system: Cyperus difformis; test: as above; parameters: key: 1 Pflanze abgestorben; 2-4 schwere Schädigung; 3: 2-4 schwere Schädigung; 2-4 schwere Schädigung; 5, 6 mittlere Schäden; 5, 6 mittlere Schäden; 7, 8 leichte Schäden; 7, 8 leichte Schäden; 9 Pflanze gedeiht normal, wie unbehandelte Kontrollpflanze; details: applied into paddy water, evaluated after 4 weeks
Description: as §2

[12] = test system: Echinochloa crus galli; test: as above; parameters: key: 1 Pflanze abgestorben; 2-4 schwere Schädigung; 3: 2-4 schwere Schädigung; 2-4 schwere Schädigung; 5, 6 mittlere Schäden; 5, 6 mittlere Schäden; 7, 8 leichte Schäden; 7, 8 leichte Schäden; 9 Pflanze gedeiht normal, wie unbehandelte Kontrollpflanze; details: applied into paddy water, evaluated after 4 weeks
Description: as §2

[13] = test system: Reis; test: as above; parameters: key: 1 Pflanze abgestorben; 2-4 schwere Schädigung; 3: 2-4 schwere Schädigung; 2-4 schwere Schädigung; 5, 6 mittlere Schäden; 5, 6 mittlere Schäden; 7, 8 leichte Schäden; 7, 8 leichte Schäden; 9 Pflanze gedeiht normal, wie unbehandelte Kontrollpflanze; details: applied as emulsion concentrate into paddy water, evaluated after 4 weeks
Description: as §2

[14] = test system: Rotala indica; test: as above; parameters: key: 1 Pflanze abgestorben; 2-4 schwere Schädigung; 3: 2-4 schwere Schädigung; 2-4 schwere Schädigung; 5, 6 mittlere Schäden; 5, 6 mittlere Schäden; 7, 8 leichte Schäden; 7, 8 leichte Schäden; 9 Pflanze gedeiht normal, wie unbehandelte Kontrollpflanze; details: applied into paddy water, evaluated after 4 weeks
Description: as §2

[15] = test system: Baumwollpflanzen der Sorte Deltapine; test: Desiccation and defoliation action on cotton; details: Aufwandmenge 0,6 kg/ha, nach 14 Tagen; only a few dried-up leaves left on the plant
Source text: Im Gewächshaus wurden Baumwollpflanzen der Sorte Deltapine in Tontöpfen angezogen. Nach abgeschlossener Kapselbildung wurden sie mit wässrigen Zubereitungen der Wirkstoffe in einer Aufwandmenge, die 1,2, 0,6 und 0,3 kg/ha im Feld entspräche, gespritzt. Unbehandelte Pflanzen wurden als Kontrolle belassen. Die Auswertung des Versuches erfolgte 3, 7 und 14 Tage nach Applikation der Versuchssubstanz durch Bestimmen des Grades an Defoliation (% abgefallene Blätter) und an Dessikation (% Austrocknung der an der Pflanze verbleibenden Blätter).

SMILES	Zustand der Pflanzen (EWRC Bewertungsschema) ([1]; Aufwandmenge 2 kg/ha)	Zustand der Pflanzen (EWRC Bewertungsschema) ([1]; Aufwandmenge 4 kg/ha)	Zustand der Pflanzen (EWRC Bewertungsschema) ([2]; Aufwandmenge 2 kg/ha)	Zustand der Pflanzen (EWRC Bewertungsschema) ([2]; Aufwandmenge 4 kg/ha)	Zustand der Pflanzen (EWRC Bewertungsschema) ([3]; Aufwandmenge 2 kg/ha)	Zustand der Pflanzen (EWRC Bewertungsschema) ([3]; Aufwandmenge 4 kg/ha)	Zustand der Pflanzen (EWRC Bewertungsschema) ([4]; Aufwandmenge 2 kg/ha)	Zustand der Pflanzen (EWRC Bewertungsschema) ([4]; Aufwandmenge 4 kg/ha)	Zustand der Pflanzen (EWRC Bewertungsschema) ([5]; Aufwandmenge 2 kg/ha)	Zustand der Pflanzen (EWRC Bewertungsschema) ([5]; Aufwandmenge 4 kg/ha)	Zustand der Pflanzen (EWRC Bewertungsschema) ([6]; Aufwandmenge 2 kg/ha)	Zustand der Pflanzen (EWRC Bewertungsschema) ([6]; Aufwandmenge 4 kg/ha)	Zustand der Pflanzen (EWRC Bewertungsschema) ([7]; Aufwandmenge 2 kg/ha)	Zustand der Pflanzen (EWRC Bewertungsschema) ([7]; Aufwandmenge 4 kg/ha)	Zustand der Pflanzen (EWRC Bewertungsschema) ([8]; Aufwandmenge 2 kg/ha)	Zustand der Pflanzen (EWRC Bewertungsschema) ([8]; Aufwandmenge 4 kg/ha)	Zustand der Pflanzen (EWRC Bewertungsschema) ([9]; Aufwandmenge 2 kg/ha)	Zustand der Pflanzen (EWRC Bewertungsschema) ([9]; Aufwandmenge 4 kg/ha)	also measured
CCOC(=O)CCC(C)Oc1cc(Oc2ccc(C(F)(F)F)cc2Cl)ccc1Cl (centres unmarked) [Verbindung No. 2, 4-[3'-(2"-Chlor-4-trifluormethylphenoxy)-6'-chlorphenoxy]-valeriansäure-äthylester]	9	9	9	9	5	1	1	1	3	1	2	1	1	1	1	1	2	1	Selektive herbizide Wirkung (rating) ([10]; 1 kg/ha): 3; Selektive herbizide Wirkung (rating) ([10]; 2 kg/ha): 1; Selektive herbizide Wirkung (rating) ([11]; 1 kg/ha): 5; Selektive herbizide Wirkung (rating) ([11]; 2 kg/ha): 3; Selektive herbizide Wirkung (rating) ([12]; 1 kg/ha): 4; Selektive herbizide Wirkung (rating) ([12]; 2 kg/ha): 3; Selektive herbizide Wirkung (rating) ([13]; 1 kg/ha): 7; Selektive herbizide Wirkung (rating) ([13]; 2 kg/ha): 7; Selektive herbizide Wirkung (rating) ([14]; 1 kg/ha): 4; Selektive herbizide Wirkung (rating) ([14]; 2 kg/ha): 3
CCOC(=O)CCC(C)Oc1cc(Oc2ccc(C(F)(F)F)cc2Br)ccc1Cl (centres unmarked) [compound 16]	9	9	9	9	5	1	2	1	1	1	1	1	1	1	1	1	2	1	Wirkung (Defoliation und Dessikation) [15]: 90%
